# From ChEMBL document CHEMBL5120863, “Sophorolipids: Anti-cancer activities and mechanisms” (Bioorg Med Chem, 2022)
# Legend:
# HPAC = test: Cytotoxicity against human HPAC cells assessed as reduction in LDH release at 100 ug/ml measured after 12 hrs by CytoTox96 nonradioactive assay; assay type: functional; parameters: scale not given: the % may be the effect or the level left; conditions: dose 100 µg/ml
# MDA-MB-231 [1] = test: Cytotoxicity against human MDA-MB-231 cells assessed as cell growth inhibition measured after 24 hrs by crystal violet staining based assay; assay type: functional; conditions: MDA-MB-231, 24 h
# [2] = Antitumor activity against human HeLa cells xenografted in BALB/c mouse assessed as reduction in tumor weight at 50 mg/kg, IG administered once daily for 12 days measured after 14 days; assay type: functional; parameters: scale not given: the % may be the effect or the level left; conditions: time 12 day
# [3] = Antitumor activity against human HeLa cells xenografted in BALB/c mouse assessed as reduction in tumor weight at 5 mg/kg, IG administered once daily for 12 days measured after 14 days; assay type: functional; parameters: scale not given: the % may be the effect or the level left; conditions: time 12 day
# [4] = Antitumor activity against human HeLa cells xenografted in BALB/c mouse assessed as reduction in tumor weight at 500 mg/kg, IG administered once daily for 12 days measured after 14 days; assay type: functional; parameters: scale not given: the % may be the effect or the level left; conditions: time 12 day
# [5] = Cytotoxicity against human HUVEC cells assessed as cell growth inhibition measured after 48 hrs by MTT assay; assay type: toxicity, cell-based
# PANC-1 [6] = test: Cytotoxicity against human PANC-1 cells assessed as cell growth inhibition measured after 48 hrs by MTT assay; assay type: functional, cell-based; conditions: PANC-1, 48 h
# HCT-116 = test: Cytotoxicity against human HCT-116 cells assessed as cell growth inhibition measured after 48 hrs by MTT assay; assay type: functional, cell-based; conditions: HCT-116, 48 h
# HeLa [7] = test: Cytotoxicity against human HeLa cells assessed as cell growth inhibition measured after 48 hrs by MTT assay; assay type: functional, cell-based
# [8] = Cytotoxicity against human L929 cells assessed as cell growth inhibition measured after 48 hrs by MTT assay; assay type: toxicity, cell-based; conditions: mouse
# A-431 = test: Cytotoxicity against human A-431 cells assessed as cell growth inhibition measured after 48 hrs by MTT assay; assay type: functional, cell-based; conditions: A-431, 48 h
# A549 [9] = test: Cytotoxicity against human A549 cells assessed as cell growth inhibition measured after 48 hrs by MTT assay; assay type: functional, cell-based; conditions: A549, 48 h
# PANC-1 [10] = test: Cytotoxicity against human PANC-1 cells assessed as cell growth inhibition measured after 72 hrs by MTT assay; assay type: functional, cell-based; conditions: PANC-1, 72 h
# MCF7 [11] = test: Cytotoxicity against human MCF7 cells assessed as cell growth inhibition measured after 48 hrs by MTT assay; assay type: functional, cell-based; conditions: MCF7, 48 h
# HeLa [12] = test: Cytotoxicity against human HeLa cells assessed as cell growth inhibition measured after 24 hrs by MTT assay; assay type: functional, cell-based
# KYSE-450 = test: Cytotoxicity against human KYSE-450 cells assessed as cell growth inhibition measured after 24 hrs by MTT assay; assay type: functional, cell-based; conditions: KYSE-450, 24 h
# ECa-109 cell line = test: Cytotoxicity against human Eca-109 cells assessed as cell growth inhibition measured after 24 hrs by MTT assay; assay type: functional, cell-based; conditions: ECa-109, 24 h
# A549 [13] = test: Cytotoxicity against human A549 cells assessed as cell growth inhibition measured after 48 hrs; assay type: functional, cell-based; conditions: A549, 48 h
# MCF7 [14] = test: Cytotoxicity against human MCF7 cells assessed as reduction in cell viability at 14.7 ug/ml measured after 48 hrs by MTT assay relative to control; assay type: functional; conditions: dose 14.7 µg/ml
# THP-1 [15] = test: Cytotoxicity against human THP-1 cells assessed as cell growth inhibition measured after 72 hrs by MTT assay; assay type: functional, cell-based; conditions: THP-1, 72 h
# Caco-2 = test: Cytotoxicity against human Caco2 cells assessed as cell growth inhibition measured after 24 by MTT assay; assay type: functional, cell-based
# MCF7 [16] = test: Cytotoxicity against human MCF7 cells assessed as reduction in cell viability at 14.7 ug/ml measured after 24 hrs by MTT assay relative to control; assay type: functional; conditions: dose 14.7 µg/ml
# MDA-MB-231 [17] = test: Cytotoxicity against human MDA-MB-231 cells assessed as reduction in cell viability at 3.68 ug/ml measured after 24 hrs by MTT assay relative to control; assay type: functional; conditions: dose 3.68 µg/ml
# [18] = Cytotoxicity against human CCD-841CoN cells assessed as cell growth inhibition measured after 24 hrs by MTT assay; assay type: toxicity, cell-based
# THP-1 [19] = test: Cytotoxicity against human THP-1 cells assessed as cell growth inhibition measured after 24 hrs by MTT assay; assay type: functional, cell-based; conditions: THP-1, 24 h
# HT-29 = test: Cytotoxicity against human HT-29 cells assessed as cell growth inhibition; assay type: functional, cell-based
# Jurkat [20] = test: Cytotoxicity against human Jurkat cells assessed as cell growth inhibition measured after 24 hrs; assay type: functional, cell-based
# [21] = Cytotoxicity against human HEK293 cells assessed as cell growth inhibition measured after 24 hrs by MTT assay; assay type: toxicity, cell-based
# MDA-MB-231 [22] = test: Cytotoxicity against human MDA-MB-231 cells assessed as reduction in cell viability at 3.68 ug/ml measured after 48 hrs by MTT assay relative to control; assay type: functional; conditions: dose 3.68 µg/ml
# LS180 = test: Cytotoxicity against human LS180 cells assessed as cell growth inhibition; assay type: functional, cell-based
# Jurkat [23] = test: Cytotoxicity against human Jurkat cells assessed as cell growth inhibition measured after 45 hrs; assay type: functional, cell-based
# LN-229 = test: Cytotoxicity against human LN-229 cells assessed as cell growth inhibition measured after 48 hrs; assay type: functional, cell-based; conditions: LN-229, 48 h
# [24] = Cytotoxicity against human HEK293 cells assessed as cell growth inhibition measured after 48 hrs by MTT assay; assay type: toxicity, cell-based
# THP-1 [25] = test: Cytotoxicity against human THP-1 cells assessed as cell growth inhibition measured after 48 hrs by MTT assay; assay type: functional, cell-based; conditions: THP-1, 48 h
# [26] = Cytotoxicity against human HEK293 cells assessed as cell growth inhibition measured after 72 hrs by MTT assay; assay type: toxicity, cell-based
# Jurkat [27] = test: Cytotoxicity against human Jurkat cells assessed as reduction in cell viability at 25 ug/ml measured after 24 hrs; assay type: functional; conditions: dose 25 µg/ml
compound,measurement,setting,value
COC(=O)CCCCCCC/C=C\CCCCCCC(C)O[C@@H]1O[C@H](COC(C)=O)[C@@H](O)[C@H](O)[C@H]1O[C@@H]1O[C@H](COC(C)=O)[C@@H](O)[C@H](O)[C@H]1O (stereo partly specified),Activity,HPAC,25.5%
CC(=O)OC[C@H]1O[C@H]2O[C@H]3[C@H](OC(C)CCCCCC/C=C\CCCCCCCC(=O)O[C@H]1[C@H](O)[C@H]2O)O[C@H](CO)[C@@H](O)[C@@H]3O (stereo partly specified),IC50,MDA-MB-231 [1],15 µM
same,Activity,[2],41.24%
same,Activity,[3],29.9%
same,Activity,[4],52.06%
COC(=O)CCCCCCC/C=C\CCCCCCC(C)O[C@@H]1O[C@H](CO)[C@@H](O)[C@H](O)[C@H]1O[C@@H]1O[C@H](CO)[C@@H](O)[C@H](O)[C@H]1O (stereo partly specified),Activity,HPAC,58.4%
CCCCCCCCCCCCCCCCO[C@@H]1O[C@H](COC(C)=O)[C@@H](O)[C@H](O)[C@H]1O[C@@H]1O[C@H](CO)[C@@H](O)[C@H](O)[C@H]1O,IC50 at 48 h,[5],> 320 µg/mL
same,IC50,PANC-1 [6],116 µg/mL
same,IC50,HCT-116,23.2 µg/mL
same,IC50,HeLa [7],14.1 µg/mL
same,IC50 at 48 h,[8],> 320 µg/mL
same,IC50,A-431,14.9 µg/mL
same,IC50,A549 [9],15 µg/mL
same,IC50,PANC-1 [10],> 100 µg/mL
same,IC50,MCF7 [11],37.7 µg/mL
CC(CCCCCC/C=C\CCCCCCCC(=O)O)O[C@@H]1O[C@H](CO)[C@@H](O)[C@H](O)[C@H]1O[C@@H]1O[C@H](CO)[C@@H](O)[C@H](O)[C@H]1O (stereo partly specified),IC50,MDA-MB-231 [1],80 µM
CC(=O)OC[C@H]1O[C@H]2OC(C)CCC/C=C/C/C=C\CCCCCCCC(=O)O[C@H]3[C@H](O)[C@@H](O)[C@H](O[C@@H]2[C@@H](O)[C@@H]1O)O[C@@H]3COC(C)=O (stereo partly specified),IC50,HeLa [12],476 µg/mL
same,IC50,KYSE-450,35 µg/mL
same,IC50,ECa-109 cell line,15 µg/mL
same,IC50,A549 [13],22 µg/mL
COc1cccc2c1C(=O)c1c(O)c3c(c(O)c1C2=O)C[C@@](O)(C(=O)CO)C[C@@H]3O[C@H]1C[C@H](N)[C@H](O)[C@H](C)O1 [DOXORUBICIN],Activity,MCF7 [14],40%
same,IC50,THP-1 [15],3 µg/mL
same,IC50,HeLa [12],7.4 µg/mL
same,IC50,HeLa [7],13 µg/mL
same,IC50,Caco-2,64.2 µg/mL
same,Activity,MCF7 [16],45%
same,Activity,MDA-MB-231 [17],55%
same,IC50 at 24 h,[18],1.5 µg/mL
same,IC50,THP-1 [19],15.7 µg/mL
same,IC50,HT-29,1.6 µg/mL
same,IC50,A549 [9],9.5 µM
same,IC50,Jurkat [20],1 µM
same,IC50 at 24 h,[21],16.7 µg/mL
same,Activity,MDA-MB-231 [22],45%
same,IC50,LS180,0.7 µg/mL
same,IC50,Jurkat [23],0.3 µM
same,IC50,LN-229,2 µg/mL
same,IC50 at 48 h,[24],6.1 µg/mL
same,IC50,THP-1 [25],6.5 µg/mL
same,IC50 at 72 h,[26],1 µg/mL
CCCCOC(=O)CCCCCCC/C=C\CCCCCCC(C)O[C@@H]1O[C@H](COC(C)=O)[C@@H](O)[C@H](O)[C@H]1O[C@@H]1O[C@H](COC(C)=O)[C@@H](O)[C@H](O)[C@H]1O (stereo partly specified),Activity,Jurkat [27],99%
